Source: patent publication US8168651B2, “Protein kinase modulators” (Cylene Pharmaceuticals, Inc., priority 2008, dated 2012)

Legend:
Test in all cases: Standardized radiometric kinase assays, percentage of activity at 0.5 μM;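 note: Read-out is ³³P-labelled substrate protein phosphorylated by each kinase, captured on filters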
[1] = target: each individual kinase of the panel (Homo sapiens, UniProt P09769)
[2] = target: each individual kinase of the panel (Homo sapiens, UniProt Q9H2K8)
[3] = target: each individual kinase of the panel (Homo sapiens, UniProt Q06187)
each individual kinase of the panel (Homo sapiens, UniProt Q06187), sequence (Q06187 2-659 limits assumed): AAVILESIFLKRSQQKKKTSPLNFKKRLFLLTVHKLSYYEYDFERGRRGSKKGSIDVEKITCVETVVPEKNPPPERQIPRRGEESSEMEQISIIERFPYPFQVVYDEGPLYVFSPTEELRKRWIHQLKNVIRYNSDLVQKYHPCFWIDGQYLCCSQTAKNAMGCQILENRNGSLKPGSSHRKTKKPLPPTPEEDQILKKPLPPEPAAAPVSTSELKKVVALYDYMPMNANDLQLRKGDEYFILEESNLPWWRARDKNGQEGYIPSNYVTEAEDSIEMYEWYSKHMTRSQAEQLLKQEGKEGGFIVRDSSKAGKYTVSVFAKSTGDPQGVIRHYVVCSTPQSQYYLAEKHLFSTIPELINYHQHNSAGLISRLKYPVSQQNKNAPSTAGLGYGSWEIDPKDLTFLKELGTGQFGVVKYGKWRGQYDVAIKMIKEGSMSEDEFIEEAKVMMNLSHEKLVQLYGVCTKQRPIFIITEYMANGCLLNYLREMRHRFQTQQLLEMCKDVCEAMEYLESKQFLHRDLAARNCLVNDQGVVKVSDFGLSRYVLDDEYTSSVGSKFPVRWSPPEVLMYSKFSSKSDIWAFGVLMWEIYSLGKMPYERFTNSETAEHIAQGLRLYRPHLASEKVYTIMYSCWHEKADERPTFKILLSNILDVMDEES

[4] = target: each individual kinase of the panel (Homo sapiens, UniProt Q9BXA7)
[5] = target: each individual kinase of the panel (Homo sapiens, UniProt Q15831)
[6] = target: each individual kinase of the panel (Homo sapiens, UniProt Q00526)
[7] = target: each individual kinase of the panel (Homo sapiens, UniProt Q9BYT3)
[8] = target: each individual kinase of the panel (Homo sapiens, UniProt O96017)
[9] = target: each individual kinase of the panel (Homo sapiens, UniProt Q16513)
[10] = target: each individual kinase of the panel (Homo sapiens, UniProt O96017, R145W)
[11] = target: each individual kinase of the panel (Homo sapiens, UniProt Q16566)
[12] = target: each individual kinase of the panel (Homo sapiens, UniProt O75582)
[13] = target: each individual kinase of the panel (Homo sapiens, UniProt O75116)
[14] = target: each individual kinase of the panel (Homo sapiens, UniProt P10721, V654A)
each individual kinase of the panel (Homo sapiens, UniProt P10721, V654A), sequence (P10721 26-976 V654A limits assumed): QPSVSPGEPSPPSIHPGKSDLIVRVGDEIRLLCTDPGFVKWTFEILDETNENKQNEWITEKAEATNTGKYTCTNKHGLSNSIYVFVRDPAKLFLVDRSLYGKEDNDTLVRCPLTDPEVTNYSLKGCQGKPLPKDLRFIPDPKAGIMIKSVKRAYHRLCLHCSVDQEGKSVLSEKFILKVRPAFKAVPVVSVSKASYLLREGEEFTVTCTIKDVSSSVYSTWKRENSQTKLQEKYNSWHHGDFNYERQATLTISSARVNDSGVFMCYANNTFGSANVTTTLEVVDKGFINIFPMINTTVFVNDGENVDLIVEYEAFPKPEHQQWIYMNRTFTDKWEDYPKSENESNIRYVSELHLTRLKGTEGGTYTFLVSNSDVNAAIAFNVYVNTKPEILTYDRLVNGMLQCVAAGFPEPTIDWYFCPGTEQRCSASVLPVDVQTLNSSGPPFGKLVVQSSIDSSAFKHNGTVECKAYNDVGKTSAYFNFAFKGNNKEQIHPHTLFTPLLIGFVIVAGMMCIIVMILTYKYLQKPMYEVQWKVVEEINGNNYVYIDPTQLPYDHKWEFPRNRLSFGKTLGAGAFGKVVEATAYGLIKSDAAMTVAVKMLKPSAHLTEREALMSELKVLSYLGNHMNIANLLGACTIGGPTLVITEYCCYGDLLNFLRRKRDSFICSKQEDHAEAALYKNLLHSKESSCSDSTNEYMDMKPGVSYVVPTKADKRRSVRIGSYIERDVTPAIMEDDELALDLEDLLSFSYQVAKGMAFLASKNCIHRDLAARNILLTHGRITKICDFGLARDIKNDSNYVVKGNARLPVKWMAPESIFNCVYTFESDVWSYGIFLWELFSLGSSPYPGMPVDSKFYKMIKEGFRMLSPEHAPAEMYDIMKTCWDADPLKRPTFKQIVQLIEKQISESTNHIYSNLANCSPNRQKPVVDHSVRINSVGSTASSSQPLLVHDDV

[15] = target: each individual kinase of the panel (Homo sapiens, UniProt Q12851)
[16] = target: each individual kinase of the panel (Homo sapiens, UniProt P11362, V561M)
each individual kinase of the panel (Homo sapiens, UniProt P11362, V561M), sequence (P11362 22-822 V561M limits assumed): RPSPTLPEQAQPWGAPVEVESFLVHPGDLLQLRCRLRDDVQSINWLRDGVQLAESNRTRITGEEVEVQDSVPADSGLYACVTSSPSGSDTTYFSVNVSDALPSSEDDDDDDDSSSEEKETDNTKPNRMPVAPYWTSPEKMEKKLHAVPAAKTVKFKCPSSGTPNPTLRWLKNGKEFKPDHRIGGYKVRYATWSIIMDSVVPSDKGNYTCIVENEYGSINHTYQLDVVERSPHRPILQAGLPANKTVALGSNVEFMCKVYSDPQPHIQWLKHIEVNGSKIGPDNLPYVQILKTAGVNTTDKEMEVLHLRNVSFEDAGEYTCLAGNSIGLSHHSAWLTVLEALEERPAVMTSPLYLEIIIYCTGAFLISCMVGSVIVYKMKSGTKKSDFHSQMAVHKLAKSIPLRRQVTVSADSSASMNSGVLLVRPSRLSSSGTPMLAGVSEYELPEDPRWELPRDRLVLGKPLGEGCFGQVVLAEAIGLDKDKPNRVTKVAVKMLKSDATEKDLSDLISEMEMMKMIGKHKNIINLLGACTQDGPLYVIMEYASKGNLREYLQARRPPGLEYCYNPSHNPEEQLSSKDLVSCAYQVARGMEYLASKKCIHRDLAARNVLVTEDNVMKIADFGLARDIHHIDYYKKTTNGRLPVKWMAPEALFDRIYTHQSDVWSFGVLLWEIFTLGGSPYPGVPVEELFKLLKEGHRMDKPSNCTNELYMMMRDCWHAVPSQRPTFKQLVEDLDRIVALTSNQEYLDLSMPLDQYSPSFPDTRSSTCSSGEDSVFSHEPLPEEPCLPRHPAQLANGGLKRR

[17] = target: each individual kinase of the panel (Homo sapiens, UniProt O00141)
[18] = target: each individual kinase of the panel (Homo sapiens, UniProt Q13188)
[19] = target: each individual kinase of the panel (Homo sapiens, UniProt Q9Y5S2)
[20] = target: each individual kinase of the panel (Homo sapiens, UniProt Q9HBY8)
[21] = target: each individual kinase of the panel (Homo sapiens, UniProt P29322)
each individual kinase of the panel (Homo sapiens, UniProt P29322), sequence (P29322 28-1005 limits assumed): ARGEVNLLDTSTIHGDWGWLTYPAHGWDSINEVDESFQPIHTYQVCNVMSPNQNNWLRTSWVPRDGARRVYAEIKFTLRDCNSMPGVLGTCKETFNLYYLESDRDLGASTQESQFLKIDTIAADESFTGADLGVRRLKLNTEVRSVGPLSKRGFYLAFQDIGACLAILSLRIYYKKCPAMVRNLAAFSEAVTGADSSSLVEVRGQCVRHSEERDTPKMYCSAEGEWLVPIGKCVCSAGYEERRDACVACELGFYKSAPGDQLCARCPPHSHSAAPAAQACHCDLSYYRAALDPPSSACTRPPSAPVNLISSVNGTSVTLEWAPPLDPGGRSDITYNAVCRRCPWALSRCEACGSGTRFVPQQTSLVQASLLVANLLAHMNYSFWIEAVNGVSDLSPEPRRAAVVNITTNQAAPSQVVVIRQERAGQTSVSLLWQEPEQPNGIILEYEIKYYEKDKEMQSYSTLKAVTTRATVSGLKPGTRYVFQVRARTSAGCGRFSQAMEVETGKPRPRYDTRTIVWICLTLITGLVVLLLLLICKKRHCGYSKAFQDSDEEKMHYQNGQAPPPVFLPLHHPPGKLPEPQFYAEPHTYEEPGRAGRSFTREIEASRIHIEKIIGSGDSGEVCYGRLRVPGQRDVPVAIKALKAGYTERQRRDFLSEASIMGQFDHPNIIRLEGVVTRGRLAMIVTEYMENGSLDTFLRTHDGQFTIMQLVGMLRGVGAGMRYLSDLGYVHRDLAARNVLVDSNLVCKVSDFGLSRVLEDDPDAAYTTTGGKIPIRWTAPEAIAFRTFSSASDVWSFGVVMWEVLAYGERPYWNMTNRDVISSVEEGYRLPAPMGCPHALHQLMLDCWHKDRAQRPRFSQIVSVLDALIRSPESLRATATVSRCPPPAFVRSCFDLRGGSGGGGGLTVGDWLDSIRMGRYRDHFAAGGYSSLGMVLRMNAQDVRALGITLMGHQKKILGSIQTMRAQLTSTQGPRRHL

[22] = target: each individual kinase of the panel (Homo sapiens, UniProt P22455)
each individual kinase of the panel (Homo sapiens, UniProt P22455), sequence (P22455 22-802 limits assumed): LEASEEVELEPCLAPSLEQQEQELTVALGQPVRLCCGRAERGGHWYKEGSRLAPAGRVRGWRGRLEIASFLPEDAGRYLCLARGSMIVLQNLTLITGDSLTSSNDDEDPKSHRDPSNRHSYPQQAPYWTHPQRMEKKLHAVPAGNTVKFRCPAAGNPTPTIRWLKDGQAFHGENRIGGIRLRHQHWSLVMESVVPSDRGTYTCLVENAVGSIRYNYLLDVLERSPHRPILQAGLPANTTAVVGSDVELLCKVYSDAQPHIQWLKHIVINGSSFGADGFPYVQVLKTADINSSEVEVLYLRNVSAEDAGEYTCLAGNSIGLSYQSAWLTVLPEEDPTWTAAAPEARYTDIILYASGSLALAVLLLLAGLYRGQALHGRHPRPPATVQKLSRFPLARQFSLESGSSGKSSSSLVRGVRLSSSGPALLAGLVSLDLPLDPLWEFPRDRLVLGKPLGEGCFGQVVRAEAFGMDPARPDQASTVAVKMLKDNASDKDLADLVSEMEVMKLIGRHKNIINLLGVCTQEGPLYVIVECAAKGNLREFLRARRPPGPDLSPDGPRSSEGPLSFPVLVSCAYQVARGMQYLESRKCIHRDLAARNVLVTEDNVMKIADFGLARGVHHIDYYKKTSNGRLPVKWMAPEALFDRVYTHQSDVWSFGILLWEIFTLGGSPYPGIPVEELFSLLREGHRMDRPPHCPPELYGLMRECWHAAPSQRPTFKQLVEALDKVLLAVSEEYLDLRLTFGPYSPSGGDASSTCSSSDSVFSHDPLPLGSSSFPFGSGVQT

[23] = target: each individual kinase of the panel (Homo sapiens, UniProt O96017, I157T)
[24] = target: each individual kinase of the panel (Homo sapiens, UniProt Q16539, T106M)
each individual kinase of the panel (Homo sapiens, UniProt Q16539, T106M), sequence (Q16539 2-360 T106M limits assumed): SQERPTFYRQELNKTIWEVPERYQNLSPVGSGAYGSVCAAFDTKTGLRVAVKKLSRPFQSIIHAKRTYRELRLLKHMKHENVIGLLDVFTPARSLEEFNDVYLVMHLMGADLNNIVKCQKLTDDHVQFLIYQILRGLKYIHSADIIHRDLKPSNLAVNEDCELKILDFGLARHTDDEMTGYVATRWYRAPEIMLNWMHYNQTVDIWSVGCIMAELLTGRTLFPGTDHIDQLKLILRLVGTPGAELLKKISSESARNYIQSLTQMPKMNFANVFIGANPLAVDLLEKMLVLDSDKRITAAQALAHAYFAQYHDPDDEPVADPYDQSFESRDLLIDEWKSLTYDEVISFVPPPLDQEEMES

[25] = target: each individual kinase of the panel (Homo sapiens, UniProt Q8N4C8)
[26] = target: each individual kinase of the panel (Homo sapiens, UniProt Q8TDC3)
[27] = target: each individual kinase of the panel (Homo sapiens, UniProt Q86Y07)
[28] = target: each individual kinase of the panel (Homo sapiens, UniProt P42685)
[29] = target: each individual kinase of the panel (Homo sapiens, UniProt P53779)
[30] = target: each individual kinase of the panel (Homo sapiens, UniProt P51956)
[31] = target: each individual kinase of the panel (Homo sapiens, UniProt Q05513)

each individual kinase of the panel (Homo sapiens, UniProt P09769), sequence (P09769 2-529 limits assumed): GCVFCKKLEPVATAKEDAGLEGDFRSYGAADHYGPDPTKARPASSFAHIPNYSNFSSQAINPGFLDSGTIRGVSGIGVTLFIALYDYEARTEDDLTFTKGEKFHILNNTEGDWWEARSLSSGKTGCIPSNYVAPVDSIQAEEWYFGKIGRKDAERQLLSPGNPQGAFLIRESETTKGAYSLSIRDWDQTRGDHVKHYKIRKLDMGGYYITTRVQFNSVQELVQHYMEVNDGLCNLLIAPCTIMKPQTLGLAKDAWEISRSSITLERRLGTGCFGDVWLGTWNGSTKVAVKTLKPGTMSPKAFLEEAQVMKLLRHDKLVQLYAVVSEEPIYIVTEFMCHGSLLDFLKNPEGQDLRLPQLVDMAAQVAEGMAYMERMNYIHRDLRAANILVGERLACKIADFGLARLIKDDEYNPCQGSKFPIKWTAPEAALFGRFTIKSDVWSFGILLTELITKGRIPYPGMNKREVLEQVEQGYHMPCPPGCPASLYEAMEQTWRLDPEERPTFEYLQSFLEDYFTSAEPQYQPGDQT

C#Cc1cccc(Nc2nc3cc(C(=O)O)ccc3c3cncnc23)c1 [drawing 1135]
FGR percentage of activity [1]: 39% | TAO3 percentage of activity [2]: 22% | BTK percentage of activity [3]: −5% | TSSK1 percentage of activity [4]: −18% | LKB1 percentage of activity [5]: −2% | CDK3/cyclinE percentage of activity [6]: −19% | STK33 percentage of activity [7]: 0% | CHK2 percentage of activity [8]: 5% | PRK2 percentage of activity [9]: 3% | CHK2(R145W) (h) percentage of activity [10]: 0% | CAMK4 percentage of activity [11]: 2% | MSK1 percentage of activity [12]: 19% | ROCK-II percentage of activity [13]: −4% | cKit(V654A) percentage of activity [14]: 8% | GCK percentage of activity [15]: 1% | FGFR1 (V561M) percentage of activity [16]: 12% | SGK percentage of activity [17]: −1% | MST2 percentage of activity [18]: −6% | MRCKB percentage of activity [19]: 0% | SGK2 percentage of activity [20]: 2% | EPHA8 percentage of activity [21]: −15% | FGFR4 percentage of activity [22]: 14% | CHK2(1157T) (h) percentage of activity [23]: 3% | p38-alpha (T106M) percentage of activity [24]: −8% | MINK percentage of activity [25]: −13% | BRSK1 percentage of activity [26]: −1% | VRK2 percentage of activity [27]: −3% | FRK percentage of activity [28]: 3% | JNK3 percentage of activity [29]: −3% | NEK3 percentage of activity [30]: −12% | PRKCZ percentage of activity [31]: −9%
